Measurements published in paper PMC5940854, “Nitrothiophene carboxamides, a novel narrow spectrum antibacterial series: Mechanism of action and Efficacy” (Scientific Reports, 2018).
Converted amounts (≈) assume the structure as drawn.

Tests used:
[1] = system: E. coli clinical isolates; experiment: MIC on panel of E. coli clinical isolates; type: cell-based; details: for MIC50 / MIC90: Escherichia coli; for MIC50: 50% clinical isolates; for MIC90: 90% clinical isolates
[2] = system: ATCC25922; experiment: MIC on E. coli ATCC25922; type: cell-based; details: strain ATCC25922
Description: The inoculum used for all the experiments is derived from a single seed lot that is maintained as glycerol stocks at −80 °C and are sub cultured on LB plate for isolated colonies. Single colony of each strain is grown in M9 medium. All test compound stocks and dilutions are prepared in DMSO. Serial two-fold dilutions of compounds are prepared separately, with the concentrations ranging from 2 mg/mL to 0.015 mg/mL. To 150 µl (3–7 × 10^5 CFU/ml) of bacterial culture in 96 well microtitre plates, 3 μL compound from each of the dilutions is added to respective wells to obtain final concentrations ranging from 40 µg/mL to 0.3 µg/mL of the test compounds. Media control, culture control and appropriate reference drug controls are included. […] Growth is monitored by checking absorbance at 600 nm (A600). […] The samples from MIC and above concentrations are plated for MBC (Minimum Bactericidal Concentration). The samples are diluted 1:10 and plated on LB agar plates. […] The killing kinetics is determined by enumerating survivors at various time points following compound exposure. E. coli cells (~10^7 CFU/ml; A600 of 0.1) are treated with various concentrations (40 µg/mL to 0.3 µg/mL) of compounds in a 96-well microtitre plate. At various time intervals (0 to 8 h), 30 μl volumes of treated cultures are serially diluted and plated on LB agar plates. […] Data is expressed as the log10 CFU for each drug treatment.

## C[C@@H](O)[C@H]1C(=O)N2C(C(=O)O)=C(S[C@@H]3CN[C@H](C(=O)N(C)C)C3)[C@H](C)[C@H]12 [meropenem, reference compound]
[1]; 75 E.coli clinical isolates
  MIC Range: 0.03 to 8 µg/mL
  MIC50: 0.06 µg/mL (≈ 0.156 µM)
  MIC90: 8 µg/mL (≈ 20.9 µM)
[1]; strain SEC001
  MIC: > 4 µg/mL
[1]; strain SEC002
  MIC: 0.13 µg/mL (≈ 0.339 µM)
[1]; strain SEC003
  MIC: > 4 µg/mL
[1]; strain SEC004
  MIC: > 4 µg/mL
[1]; strain SEC005
  MIC: 0.06 µg/mL (≈ 0.156 µM)
[1]; strain SEC006
  MIC: 0.03 µg/mL (≈ 0.0782 µM)
[1]; strain SEC007
  MIC: 0.03 µg/mL (≈ 0.0782 µM)
[1]; strain SEC008
  MIC: 0.13 µg/mL (≈ 0.339 µM)
[1]; strain SEC011
  MIC: 0.06 µg/mL (≈ 0.156 µM)
[1]; strain SEC012
  MIC: 0.06 µg/mL (≈ 0.156 µM)
[1]; strain SEC013
  MIC: 0.06 µg/mL (≈ 0.156 µM)
[1]; strain SEC014
  MIC: 0.06 µg/mL (≈ 0.156 µM)
[1]; strain SEC015
  MIC: > 4 µg/mL
[1]; strain SEC016
  MIC: 0.03 µg/mL (≈ 0.0782 µM)
[1]; strain SEC017
  MIC: 0.06 µg/mL (≈ 0.156 µM)
[1]; strain SEC018
  MIC: 0.06 µg/mL (≈ 0.156 µM)
[1]; strain SEC019
  MIC: 0.06 µg/mL (≈ 0.156 µM)
[1]; strain SEC020
  MIC: > 4 µg/mL
[1]; strain SEC021
  MIC: 0.03 µg/mL (≈ 0.0782 µM)
[1]; strain SEC022
  MIC: 0.03 µg/mL (≈ 0.0782 µM)
[1]; strain SEC023
  MIC: 0.25 µg/mL (≈ 0.652 µM)
[1]; strain SEC024
  MIC: 0.25 µg/mL (≈ 0.652 µM)
[1]; strain SEC025
  MIC: 0.25 µg/mL (≈ 0.652 µM)
[1]; strain SEC026
  MIC: 0.13 µg/mL (≈ 0.339 µM)
[1]; strain SEC028
  MIC: 0.03 µg/mL (≈ 0.0782 µM)
[1]; strain SEC029
  MIC: 0.06 µg/mL (≈ 0.156 µM)
[1]; strain SEC031
  MIC: 0.06 µg/mL (≈ 0.156 µM)
[1]; strain SEC032
  MIC: 0.03 µg/mL (≈ 0.0782 µM)
[1]; strain SEC033
  MIC: 0.03 µg/mL (≈ 0.0782 µM)
[1]; strain SEC034
  MIC: 0.03 µg/mL (≈ 0.0782 µM)
[1]; strain SEC035
  MIC: 0.5 µg/mL (≈ 1.3 µM)
[1]; strain SEC036
  MIC: 0.06 µg/mL (≈ 0.156 µM)
[1]; strain SEC037
  MIC: 0.03 µg/mL (≈ 0.0782 µM)
[1]; strain SEC038
  MIC: 0.06 µg/mL (≈ 0.156 µM)
[1]; strain SEC039
  MIC: 0.03 µg/mL (≈ 0.0782 µM)
[1]; strain SEC040
  MIC: 0.06 µg/mL (≈ 0.156 µM)
[1]; strain SEC041
  MIC: > 4 µg/mL
[1]; strain SEC042
  MIC: 2 µg/mL (≈ 5.22 µM)
[1]; strain SEC043
  MIC: 0.06 µg/mL (≈ 0.156 µM)
[1]; strain SEC044
  MIC: 0.13 µg/mL (≈ 0.339 µM)
[1]; strain SEC045
  MIC: 0.06 µg/mL (≈ 0.156 µM)
[1]; strain SEC046
  MIC: 0.03 µg/mL (≈ 0.0782 µM)
[1]; strain SEC047
  MIC: 0.06 µg/mL (≈ 0.156 µM)
[1]; strain SEC048
  MIC: 0.25 µg/mL (≈ 0.652 µM)
[1]; strain SEC049
  MIC: 0.5 µg/mL (≈ 1.3 µM)
[1]; strain SEC050
  MIC: 0.03 µg/mL (≈ 0.0782 µM)
[1]; strain SEC051
  MIC: 0.03 µg/mL (≈ 0.0782 µM)
[1]; strain SEC052
  MIC: 1 µg/mL (≈ 2.61 µM)
[1]; strain SEC053
  MIC: 1 µg/mL (≈ 2.61 µM)
[1]; strain SEC054
  MIC: 0.03 µg/mL (≈ 0.0782 µM)
[1]; strain SEC055
  MIC: 0.06 µg/mL (≈ 0.156 µM)
[1]; strain SEC057
  MIC: 0.13 µg/mL (≈ 0.339 µM)
[1]; strain SEC058
  MIC: 0.06 µg/mL (≈ 0.156 µM)
[1]; strain SEC059
  MIC: 0.06 µg/mL (≈ 0.156 µM)
[1]; strain SEC060
  MIC: 0.06 µg/mL (≈ 0.156 µM)
[1]; strain SEC061
  MIC: 0.03 µg/mL (≈ 0.0782 µM)
[1]; strain SEC062
  MIC: 0.03 µg/mL (≈ 0.0782 µM)
[1]; strain SEC063
  MIC: > 4 µg/mL
[1]; strain SEC064
  MIC: 0.06 µg/mL (≈ 0.156 µM)
[1]; strain SEC065
  MIC: 0.03 µg/mL (≈ 0.0782 µM)
[1]; strain SEC067
  MIC: 0.06 µg/mL (≈ 0.156 µM)
[1]; strain SEC068
  MIC: > 4 µg/mL
[1]; strain SEC069
  MIC: 2 µg/mL (≈ 5.22 µM)
[1]; strain SEC070
  MIC: 0.03 µg/mL (≈ 0.0782 µM)
[1]; strain SEC071
  MIC: 0.03 µg/mL (≈ 0.0782 µM)
[1]; strain SEC072
  MIC: 0.06 µg/mL (≈ 0.156 µM)
[1]; strain SEC073
  MIC: 0.13 µg/mL (≈ 0.339 µM)
[1]; strain SEC074
  MIC: 0.06 µg/mL (≈ 0.156 µM)
[1]; strain SEC075
  MIC: 0.13 µg/mL (≈ 0.339 µM)
[1]; strain SEC076
  MIC: 0.06 µg/mL (≈ 0.156 µM)
[1]; strain SEC077
  MIC: 0.5 µg/mL (≈ 1.3 µM)
[1]; strain SEC078
  MIC: > 4 µg/mL
[1]; strain SEC079
  MIC: 0.06 µg/mL (≈ 0.156 µM)
[1]; strain SEC080
  MIC: 0.03 µg/mL (≈ 0.0782 µM)
[2]
  MIC: 0.06 µg/mL (≈ 0.156 µM)

## CNC(C)C1CCC(N)C(OC2C(N)CC(N)C(OC3OCC(C)(O)C(NC)C3O)C2O)O1 (centres unmarked) [gentamicin, reference compound]
[1]; 75 E.coli clinical isolates
  MIC50: 16 µg/mL (≈ 33.5 µM)
  MIC90: > 64 µg/mL
[1]; strain SEC001
  MIC: > 64 µg/mL
[1]; strain SEC002
  MIC: 4 µg/mL (≈ 8.38 µM)
[1]; strain SEC003
  MIC: > 64 µg/mL
[1]; strain SEC004
  MIC: 4 µg/mL (≈ 8.38 µM)
[1]; strain SEC005
  MIC: > 64 µg/mL
[1]; strain SEC006
  MIC: 4 µg/mL (≈ 8.38 µM)
[1]; strain SEC007
  MIC: > 64 µg/mL
[1]; strain SEC008
  MIC: > 64 µg/mL
[1]; strain SEC011
  MIC: > 64 µg/mL
[1]; strain SEC012
  MIC: 4 µg/mL (≈ 8.38 µM)
[1]; strain SEC013
  MIC: > 64 µg/mL
[1]; strain SEC014
  MIC: > 64 µg/mL
[1]; strain SEC015
  MIC: > 64 µg/mL
[1]; strain SEC016
  MIC: 4 µg/mL (≈ 8.38 µM)
[1]; strain SEC017
  MIC: > 64 µg/mL
[1]; strain SEC018
  MIC: 0.5 µg/mL (≈ 1.05 µM)
[1]; strain SEC019
  MIC: > 64 µg/mL
[1]; strain SEC020
  MIC: 2 µg/mL (≈ 4.19 µM)
[1]; strain SEC021
  MIC: > 64 µg/mL
[1]; strain SEC022
  MIC: > 64 µg/mL
[1]; strain SEC023
  MIC: 4 µg/mL (≈ 8.38 µM)
[1]; strain SEC024
  MIC: > 64 µg/mL
[1]; strain SEC025
  MIC: > 64 µg/mL
[1]; strain SEC026
  MIC: 2 µg/mL (≈ 4.19 µM)
[1]; strain SEC028
  MIC: 2 µg/mL (≈ 4.19 µM)
[1]; strain SEC029
  MIC: 4 µg/mL (≈ 8.38 µM)
[1]; strain SEC031
  MIC: > 64 µg/mL
[1]; strain SEC032
  MIC: 4 µg/mL (≈ 8.38 µM)
[1]; strain SEC033
  MIC: > 64 µg/mL
[1]; strain SEC034
  MIC: 2 µg/mL (≈ 4.19 µM)
[1]; strain SEC035
  MIC: > 64 µg/mL
[1]; strain SEC036
  MIC: 4 µg/mL (≈ 8.38 µM)
[1]; strain SEC037
  MIC: 4 µg/mL (≈ 8.38 µM)
[1]; strain SEC038
  MIC: 4 µg/mL (≈ 8.38 µM)
[1]; strain SEC039
  MIC: 2 µg/mL (≈ 4.19 µM)
[1]; strain SEC040
  MIC: 32 µg/mL (≈ 67 µM)
[1]; strain SEC041
  MIC: 4 µg/mL (≈ 8.38 µM)
[1]; strain SEC042
  MIC: > 64 µg/mL
[1]; strain SEC043
  MIC: > 64 µg/mL
[1]; strain SEC044
  MIC: > 64 µg/mL
[1]; strain SEC045
  MIC: 4 µg/mL (≈ 8.38 µM)
[1]; strain SEC046
  MIC: 4 µg/mL (≈ 8.38 µM)
[1]; strain SEC047
  MIC: > 64 µg/mL
[1]; strain SEC048
  MIC: 4 µg/mL (≈ 8.38 µM)
[1]; strain SEC049
  MIC: 4 µg/mL (≈ 8.38 µM)
[1]; strain SEC050
  MIC: > 64 µg/mL
[1]; strain SEC051
  MIC: 2 µg/mL (≈ 4.19 µM)
[1]; strain SEC052
  MIC: 2 µg/mL (≈ 4.19 µM)
[1]; strain SEC053
  MIC: > 64 µg/mL
[1]; strain SEC054
  MIC: 8 µg/mL (≈ 16.8 µM)
[1]; strain SEC055
  MIC: 2 µg/mL (≈ 4.19 µM)
[1]; strain SEC057
  MIC: 4 µg/mL (≈ 8.38 µM)
[1]; strain SEC058
  MIC: 4 µg/mL (≈ 8.38 µM)
[1]; strain SEC059
  MIC: 2 µg/mL (≈ 4.19 µM)
[1]; strain SEC060
  MIC: 32 µg/mL (≈ 67 µM)
[1]; strain SEC061
  MIC: > 64 µg/mL
[1]; strain SEC062
  MIC: 8 µg/mL (≈ 16.8 µM)
[1]; strain SEC063
  MIC: 0.5 µg/mL (≈ 1.05 µM)
[1]; strain SEC064
  MIC: > 64 µg/mL
[1]; strain SEC065
  MIC: > 64 µg/mL
[1]; strain SEC067
  MIC: 4 µg/mL (≈ 8.38 µM)
[1]; strain SEC068
  MIC: > 64 µg/mL
[1]; strain SEC069
  MIC: > 64 µg/mL
[1]; strain SEC070
  MIC: > 64 µg/mL
[1]; strain SEC071
  MIC: 32 µg/mL (≈ 67 µM)
[1]; strain SEC072
  MIC: > 64 µg/mL
[1]; strain SEC073
  MIC: > 64 µg/mL
[1]; strain SEC074
  MIC: > 64 µg/mL
[1]; strain SEC075
  MIC: > 64 µg/mL
[1]; strain SEC076
  MIC: 4 µg/mL (≈ 8.38 µM)
[1]; strain SEC077
  MIC: 16 µg/mL (≈ 33.5 µM)
[1]; strain SEC078
  MIC: > 64 µg/mL
[1]; strain SEC079
  MIC: > 64 µg/mL
[1]; strain SEC080
  MIC: 4 µg/mL (≈ 8.38 µM)
[2]
  MIC: 2 µg/mL (≈ 4.19 µM)
